Here are results for three molecules from patent US5561127A, “Muscarinic receptor ligands” (Allelix Biopharmaceuticals, Inc., priority 1994, dated 1996).

One test has as its target 5-HT2 receptor (Rattus norvegicus, UniProt P14842). Nature of the test: 5-HT2 receptor binding assay (displacement of 3H-ketanserin). (In general: Loss of bound radioactivity is the signal in a displacement assay; it reports binding, not function.)
Test [1] has as its target muscarinic M1/M2 receptor. Briefly: Muscarinic M1/M2 receptor binding assay (displacement of 3H-QNB). The settings on record: 3H-QNB 0.126 nM, rat frontal cortex membranes, 32° C., 60 min, pH 7.4; read-out: Receptor affinity M1/M2 (Ki).
Test [2] has as its target T1, human D2 receptor (short isoform) (Homo sapiens, UniProt P14416).
T1 construct: expressed in transfected cells
Nature of the test: Dopamine D2 receptor binding assay (displacement of 3H-spiperone). Particulars: 3H-spiperone 0.25 nM, GH4C1 cells transfected with human D2 short isoform, room temperature, 90 min; read-out: Receptor affinity D2 (Ki).
Protocol: GH4 C1 (rat pituitary) cells stably transfected with the human D2 receptor (short isoform) were grown in CO2 independent media in roller bottles (1500 cm^2) for 10 days. 100 μM ZnSO4 was added to the cells (the D2 promoter being zinc inducible). After 16 hours, fresh media was added to allow the cells to recover for 24 hours. The cells were harvested using versene and then centrifuged in a Sorval centrifuge for 10 minutes, at 5000 rpm (GS3 rotor). Pellets were quickly frozen in liquid nitrogen and stored at -80° C. until used in the binding assays. When used in the assay, cells were thawed on ice for 20 minutes. Each roller bottle produced approximately 72 mg of protein.
This assay employed the same procedures as the non-specific binding assay for D4 with the exception that 2 μM (final conc.) of (-) sulpiride (Research Chemicals Inc.) was used in place of dopamine.

Test [3] deals with T2, human D4 receptor (D4.2 sub-type) (Homo sapiens, UniProt P21917, DEL265-296).
T2 construct: expressed in transfected cells; host or cells: HEK 298 (so in the source)
T2 sequence (P21917 with tags, fused parts or gaps DEL265-296): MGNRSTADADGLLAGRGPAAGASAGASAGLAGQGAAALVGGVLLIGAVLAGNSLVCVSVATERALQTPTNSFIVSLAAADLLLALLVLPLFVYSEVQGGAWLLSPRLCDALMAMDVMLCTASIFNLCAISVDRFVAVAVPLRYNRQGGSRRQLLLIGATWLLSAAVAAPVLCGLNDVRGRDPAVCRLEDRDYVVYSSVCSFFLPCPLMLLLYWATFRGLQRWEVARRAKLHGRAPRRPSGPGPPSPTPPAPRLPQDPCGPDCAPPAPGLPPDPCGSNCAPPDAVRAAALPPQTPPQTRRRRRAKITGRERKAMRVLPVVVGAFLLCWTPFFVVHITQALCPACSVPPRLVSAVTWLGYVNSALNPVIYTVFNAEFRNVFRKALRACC
Briefly: Dopamine D4 receptor binding assay (displacement of 3H-spiperone). Particulars: 3H-spiperone 0.25 nM, transfected with human D4.2, room temperature, 90 min; read-out: Receptor affinity D4 (Ki).
Protocol: Dopamine Receptor Binding Assay
The cells were then centrifuged in a Sorval centrifuge for 10 minutes, 5000 rpm (GS3 rotor) and the pellets quickly frozen in liquid nitrogen and stored at -80° C. until used in binding assay. When used in the assay, cells were thawed on ice for 20 minutes and then 10 mL of incubation buffer (50 mM Tris, 1 mM EDTA, 4 mM MgCl2, 5 mM KCl, 1.5 mM CaCl2, 120 mM NaCl, pH7.4) was added. […] Concentration of receptor protein was determined using the Pierce BCA assay.

T1 sequence (P14416 1-414 isoform P14416-2): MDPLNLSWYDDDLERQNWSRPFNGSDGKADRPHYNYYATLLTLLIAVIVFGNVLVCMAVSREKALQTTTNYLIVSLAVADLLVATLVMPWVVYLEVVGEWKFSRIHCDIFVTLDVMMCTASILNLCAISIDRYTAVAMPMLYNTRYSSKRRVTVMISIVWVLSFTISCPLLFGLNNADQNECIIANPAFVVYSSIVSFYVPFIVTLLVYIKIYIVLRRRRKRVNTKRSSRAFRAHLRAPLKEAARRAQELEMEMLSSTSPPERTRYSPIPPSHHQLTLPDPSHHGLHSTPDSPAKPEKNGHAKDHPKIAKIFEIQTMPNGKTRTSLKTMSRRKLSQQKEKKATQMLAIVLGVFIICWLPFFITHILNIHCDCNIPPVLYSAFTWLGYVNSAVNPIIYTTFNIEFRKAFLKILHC
5-HT2 receptor, sequence (P14842 whole entry): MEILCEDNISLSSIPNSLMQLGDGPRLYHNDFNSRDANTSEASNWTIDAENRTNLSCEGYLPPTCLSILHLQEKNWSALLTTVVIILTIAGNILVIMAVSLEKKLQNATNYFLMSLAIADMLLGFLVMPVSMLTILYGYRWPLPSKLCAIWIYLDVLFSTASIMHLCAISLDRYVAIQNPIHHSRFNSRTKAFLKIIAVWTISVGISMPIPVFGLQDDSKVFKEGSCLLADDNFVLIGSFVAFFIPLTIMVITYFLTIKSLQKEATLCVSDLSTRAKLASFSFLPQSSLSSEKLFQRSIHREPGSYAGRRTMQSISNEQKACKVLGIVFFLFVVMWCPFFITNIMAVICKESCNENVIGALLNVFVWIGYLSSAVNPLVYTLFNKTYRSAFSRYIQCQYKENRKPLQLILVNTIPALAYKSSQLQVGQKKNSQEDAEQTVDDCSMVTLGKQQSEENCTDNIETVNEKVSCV

In the case of `CN1CC2CC1CN2C1=Nc2cc(Cl)c(Cl)cc2Nc2ccccc21` (stereo not drawn) [7,8-dichloro-11-(2-methyl-2,5-diazabicyclo(2.2.1)hept-5-yl)-dibenzo[b,e][1,4]diazepine], the Ki came to 1600 nM at 5-HT2 receptor, 41 nM in test [1], 4710 nM in test [2] and 4770 nM in test [3].

Take `CN1CC2CC1CN2C1=Nc2cc(Cl)ccc2Oc2ccccc21` (stereo not drawn) [8-chloro-11-(2-methyl-2,5-diazabicyclo(2.2.1)hept-5-yl)-dibenz[b,f][1,4]oxazepine]: the Ki on 5-HT2 receptor was found to be 1020 nM; in test [1], 28 nM; in test [2], 4520 nM; in test [3], 4770 nM.

In the case of `c1ccc(CN2CC3CC2CN3C2=Nc3ccccc3Oc3ccccc32)cc1` (stereo not drawn) [11-(2-benzyl-2,5-diazabicyclo(2.2.1)hept-5-yl)-dibenz[b,f][1,4]oxazepine], the Ki is 3670 nM on 5-HT2 receptor, 882 nM in test [1], 1330 nM in test [2] and 632 nM in test [3].
